The values that follow come from patent publication US7932269B2, “Sulfonamides as orexin antagonists” (Hoffmann-La Roche Inc., priority 2008, dated 2011).

One experiment deals with rat. As to conditions: icv administration; cited from earlier work.
The target in experiment [1] is T1, human orexin-2 (hOX2) receptors (Homo sapiens, UniProt O43614).
T1 construct: expressed in transfected cells
T1 sequence (O43614 1-444): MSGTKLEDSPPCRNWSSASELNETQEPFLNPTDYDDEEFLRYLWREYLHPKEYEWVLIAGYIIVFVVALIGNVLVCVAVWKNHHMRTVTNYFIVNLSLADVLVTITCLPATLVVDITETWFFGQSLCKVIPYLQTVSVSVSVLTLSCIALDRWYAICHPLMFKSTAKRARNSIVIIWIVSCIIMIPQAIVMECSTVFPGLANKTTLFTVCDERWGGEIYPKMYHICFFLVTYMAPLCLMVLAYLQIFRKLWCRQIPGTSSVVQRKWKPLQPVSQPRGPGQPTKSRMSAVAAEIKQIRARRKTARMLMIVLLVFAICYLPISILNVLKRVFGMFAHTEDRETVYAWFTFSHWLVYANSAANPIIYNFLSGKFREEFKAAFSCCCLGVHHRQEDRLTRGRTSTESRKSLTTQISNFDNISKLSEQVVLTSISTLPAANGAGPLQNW
Put plainly: Intracellular Ca2+ mobilization assay (FLIPR), orexin-A as agonist. The class given is cell-based. Conditions: CHO(dHFr-) cells stably expressing hOX2; antagonist applied 25 min before EC80 of orexin-A; Kb=IC50/(1+[A]/EC50); read-out: Kb (μM) OX2R (human). The method, then:
Intracellular Ca^2+ Mobilization Assay
The Chinese Hamster Ovary (dHFr-) mutant cell line stably expressing human orexin-1 (hOX1) or human orexin-2 (hOX2) receptors were maintained in Dulbecco's Modified Eagle Medium (1X) with GlutaMax™ 1, 4500 mg/L D-Glucose and Sodium Pyruvate (Catalog No. 31966-021, Invitrogen, Carlsbad, Calif.), 5% dialyzed fetal calf serum (Catalog No. 26400-044), 100 μg/ml penicillin and 100 μg/ml streptomycin. The cells were seeded at 5×10^4 cells/well in the poly-D-lysine treated, 96-well, black/clear-bottomed plates (Catalog No. BD356640, BD Biosciences, Palo Alto, Calif.). 24 h later, the cells were loaded for 1 hr at 37° C. with 4 μM Flou-4 acetoxymethyl ester (Catalog No. F-14202, Molecular Probes, Eugene, Oreg.) in FLIPR buffer (1×HBSS, 20 mM HEPES, 2.5 mM Probenecid). Hanks' Balanced Salt Solution (HBSS) (10X) (catalog No. 14065-049) and HEPES (1M) (catalog No. 15630-056) were purchased from Invitrogen, Carlsbad, Calif. Probenecid (250 mM) (catalog No. P8761) was from Sigma, Buchs, Switzerland. The cells were washed five times with FLIPR buffer to remove excess dye and intracellular calcium mobilization, [Ca^2+] were measured using a Fluorometric Imaging Plate Reader (FLIPR-96, Molecular Devices, Menlo Park, Calif.) as described previously (Malherbe et al., Mol. Pharmacol., 64, 823-832, 2003). Orexin A (catalog No.1455, Toris Cookson Ltd, Bristol, UK) was used as agonist. Orexin A ([…] stock solution in DMSO) was diluted in FLIPR buffer +0.1% BSA. The EC50 and EC80 values of orexin-A were measured daily from standard agonist concentration-response curves in CHO(dHFr-)-OX1R and —OX2R cell lines. All compounds were dissolved in 100% DMSO. Inhibition curves were determined by addition of 11 concentrations (0.0001-10 μM) of inhibitory compounds and using EC80 value of orexin-A as agonist (a concentration which gave 80% of max agonist response, determined daily). The antagonists were applied 25 min (incubation at 37° C.) before the application of the agonist. Responses were measured as peak increase in fluorescence minus basal, normalized to the maximal stimulatory effect induced by EC80 value of orexin-A or orexin-B. Inhibition curves were fitted according to the Hill equation: y=100/(1+(x/1C50)^nH), where nH=slope factor using Excel-fit 4 software (Microsoft). Kb values were calculated according to the following equation Kb=IC50/(1+[A]/EC50) where A is the concentration of agonist added which is very close to agonist EC80 value, and IC50 and EC50 values were derived from the antagonist inhibition and orexin-A or B agonist curves, respectively.

Usually Kb stands for the equilibrium dissociation constant of an antagonist, usually derived from a functional assay.

No end group written: not given here.

Take “OX-A: orexin-A/hypocretin1, 33 amino acid hypothalamic neuropeptide derived from prepro-orexin (QPLPDCCRQKTCSCRLYELLHGAGNHAAGILTL; ends and bridges not checked; cysteine pairing not given here; UniProt O43612 34-66, looked up)”: the “reduction of total REM sleep” value with rat was 84%.

For `Cc1cccc(S(=O)(=O)N(CC(=O)N2CCCC2c2ccccc2)c2ccc(Cl)cc2)c1` (stereo not shown) [Example 11, N-(4-Chloro-phenyl)-3-methyl-N-[2-oxo-2-(2-phenyl-pyrrolidin-1-yl)-ethyl]-benzenesulfonamide], in experiment [1], the Kb is 0.0005 µM.

Turning to `COc1ccc(S(=O)(=O)N(CC(=O)N2CCCC2c2ccc(F)cc2)c2ccccc2OC)cc1` (stereo not shown) [Example 26, N-{2-[2-(4-Fluoro-phenyl)-pyrrolidin-1-yl]-2-oxo-ethyl}-4-methoxy-N-(2-methoxy-phenyl)-benzenesulfonamide], the Kb in experiment [1] stood at 0.005 µM. Still for that read-out and setting: to `COc1ccc(S(=O)(=O)N(CC(=O)N2CCCC2c2ccccc2)c2ccc(Cl)cc2)cc1` (stereo not shown) [Example 6, N-(4-Chloro-phenyl)-4-methoxy-N-[2-oxo-2-(2-phenyl-pyrrolidin-1-yl)-ethyl]-benzenesulfonamide] belongs 0.0042 µM. Consider `COc1ccc(N(CC(=O)N2CCCC2c2ccc(F)cc2)S(=O)(=O)c2ccc(OC)cc2)cc1` (stereo not shown) [Example 41, N-{2-[2-(4-Fluoro-phenyl)-pyrrolidin-1-yl]-2-oxo-ethyl}-4-methoxy-N-(4-methoxy-phenyl)-benzenesulfonamide], for which the Kb in experiment [1] came out at 0.0026 µM. `Cc1ccc(S(=O)(=O)N(CC(=O)N2CCCC2c2ccccc2)c2ccc(Cl)cc2)cc1` (stereo not shown) [Example 5, N-(4-Chloro-phenyl)-4-methyl-N-[2-oxo-2-(2-phenyl-pyrrolidin-1-yl)-ethyl]-benzenesulfonamide]: the Kb in experiment [1] was found to be 0.0019 µM. In the case of `O=C(CN(c1ccc(Cl)cc1)S(=O)(=O)c1cccc(Cl)c1)N1CCCC1c1ccccc1` (stereo not shown) [Example 4, 3-Chloro-N-(4-chloro-phenyl)-N-[2-oxo-2-(2-phenyl-pyrrolidin-1-yl)-ethyl]-benzenesulfonamide], in experiment [1], the Kb came out at 0.0011 µM.
